For one compound, IC50 results are on record in patent publication US5563130A, “Methods for inhibiting angiogenesis, proliferation of endothelial or tumor cells and tumor growth” (American Cyanamid Company, priority 1994, dated 1996).

Assay type in all cases: cell-based
One assay relates to SW620. Kind of assay: Antiproliferative activity in human colon tumor cell line SW620. The settings on record: Homo sapiens, SW-620, PROTOCOL 1 and PROTOCOL 2. The protocol:
(§1) PROTOCOL 1, 2, and 3 are described in greater detail hereinbelow. In general, according to PROTOCOLS 1 and 2, the target ABAE and/or Human Tumor cells are exposed to the compound of Formula I for 48 hours. PROTOCOL 3 exposes ABAE cell to the compound for 4 days. A detailed description of the protocol is as follows:
(§2) Antiproliferative Activity in Human Tumor and Adult Bovine Aortic Endothelial (ABAE) Cell Lines
(§3) The antiproliferative activity of the compounds of Formula I of the present invention is evaluated in a panel comprised of human tumor cell lines and an adult bovine aortic endothelial cell line (ABAE). The human tumor cell lines are from:
(§4) 2) Colon tumors: MIP, CaCo2, and SW620.
(§5) All cell lines are maintained in log phase in RPMI 1640 media, supplemented with 5% fetal calf serum, penicillin/streptomycin and 2 mM L-glutamine. Cultures are renewed after 20 passages with cells from a fresh stock of batch-frozen early passage cells. Cell lines are routinely checked for mycoplasma contamination (Genprobe). In a laminar flow hood, cells (1-5×10^4) are plated into 96-well microtiter plates in a volume of 0.1 ml/well with a bulk microtiter dispenser (Denley). […] At this concentration, dimethylsulfoxide has no effect on cell growth. Compounds are added using a Tomtec dispenser which simultaneously dispenses from one 96-well plate, containing the drug dilutions, to the plates containing the cells. After two days of continuous drug exposure, 50% cold trichloroacetic acid (TCA) is added to 10% final concentration to fix the cells, and after 60 minutes at 4° C., the TCA is aspirated and the plates are washed 5 times with deionized water using a microtiter plate washer. The number of cells on the plate are quantitated using a protein dye-binding assay (Monks et al., 1991). A 0.4% solution of the dye, sulforhodamine B, in glacial acetic acid is added to the plates, and the plates are washed 5 times with 1% glacial acetic acid using the automatic plate washed. The bound stain is solubilized with 0.1 ml of 10 mM Tris base. The optical densities are read from an automatic spectrophotometric plate reader (Dynatech) directly to a main frame computer (VAX 8600).
(§6) Positive controls, that include standard chemotherapeutic drugs (i.e., adriamycin, cisplatin, etc.), are included in every experiment.
(§7) Background optical density measurements (complete media-cells, and complete media+drug-cells) are automatically subtracted from the appropriate control and test wells. Mean values and standard errors are determined from duplicate wells. A measure is also made of the optical density at time when the drugs are added. The number of cells after treatment (P), as % of control, is calculated for every concentration of drug, as follows: [formula] wherein: T is optical density measurement for treated cells after 48 hours;
(§8) C is optical density measurement for untreated cells after 48 hours;
(§9) Co is optical density measurement for cells at the time of drug addition.
(§10) IC50 of growth inhibition is calculated from the sets of P values using the RS-1 data package (BBN Software).
(§11) The antiproliferative activity of the compounds of Formula I is evaluated in a panel comprised of human tumor cell lines and an adult bovine aortic endothelial cell line (ABAE) as listed in PROTOCOL 1. This assay is a modification of PROTOCOL 1. The modifications include:
(§12) 1) each concentration for each compound is tested in a single well;
(§13) 2) compounds are tested at 20, 4, 0.8, 0.16 microgram/ml and additionally in some experiments at 100 and 0.32 microgram/ml;
(§14) 3) samples are pipetted into a 96-well plate for each of the cell lines by a Beckman Biomek 1000 SL robot;
(§15) 4) after fixing with TCA each well is washed with 0.35 ml distilled water twice, not five times;
(§16) 5) after staining with sulforhodamine B each well is washed 3 times, not five times; […]

The subject of the next assay is MIP. Kind of assay: Antiproliferative activity in human colon tumor cell line MIP. The conditions noted are these: Homo sapiens, PROTOCOL 1 and PROTOCOL 2. The protocol:
as §1, §2, §3, §4, §5, §6, §7, §8, §9, §10, §11, §12, §13, §14, §15, §16

The test system of a further assay is A2780S. Kind of assay: Antiproliferative activity in human ovarian tumor cell line A2780S. The conditions noted are these: Homo sapiens, A2780S, PROTOCOL 1 and PROTOCOL 2. Here is the method:
as §1, §2, §3, §5, §6, §7, §8, §9, §10, §11, §12, §13, §14, §15, §16

What is called IC50 is the concentration that inhibits the measured activity by half. Higher therefore signals lower potency.

In brackets after ≈: the same amount, converted by molar mass.

On to `CN(C)c1ccc(O)c2c1C[C@H]1C[C@H]3[C@H](N(C)C)C(O)=C(C(N)=O)C(=O)[C@@]3(O)C(O)=C1C2=O` [Minocycline, reference compound], for which the values for the IC50 in the assay with SW620, in the assay on MIP and with A2780S were 6.5 µg/mL (≈ 14.2 µM), 6.1 µg/mL (≈ 13.3 µM) and 6.1 µg/mL (≈ 13.3 µM), respectively.
